From patent US20110130397A1, “PYRROLINONE COMPOUNDS AS INHIBITORS OF BACTERIAL PEPTIDYL TRNA HYDROLASE AND USES THEREOF” (priority 2006, published 2011)

Experiment: not given
Conditions: not given

melting point	Compound
201 to 202 °C	CCOC(=O)CCC(=O)C1=C(O)C(=O)N(c2nc3ccc(F)cc3s2)C1c1ccc(F)cc1 (centres unmarked) [Compound 497]
219 to 220 °C	CCOC(=O)CCC(=O)C1=C(O)C(=O)N(c2nc3ccc(F)cc3s2)C1c1ccc(Cl)cc1 (centres unmarked) [Compound 498]
180 to 182 °C	CCOC(=O)CCC(=O)C1=C(O)C(=O)N(c2nc3c(Cl)cccc3s2)C1c1ccccc1F (centres unmarked) [Compound 499]
178 to 179 °C	CCOC(=O)CCC(=O)C1=C(O)C(=O)N(c2nc3c(Cl)cccc3s2)C1c1ccc(F)cc1 (centres unmarked) [Compound 500]
215 to 216 °C	CCOC(=O)CCC(=O)C1=C(O)C(=O)N(c2nc3c(Cl)cccc3s2)C1c1ccc(Cl)cc1 (centres unmarked) [Compound 501]
177 to 178 °C	Cc1ccc(C(=O)C2=C(O)C(=O)N(Cc3ccco3)C2c2ccccc2F)o1 (centres unmarked) [Compound 502]
213 to 214 °C	Cc1ccc(C(=O)C2=C(O)C(=O)N(Cc3ccco3)C2c2ccc(F)cc2)o1 (centres unmarked) [Compound 503]
193 to 194 °C	Cc1ccc(C(=O)C2=C(O)C(=O)N(Cc3cccs3)C2c2ccccc2F)o1 (centres unmarked) [Compound 504]
225 to 226 °C	Cc1ccc(C(=O)C2=C(O)C(=O)N(Cc3cccs3)C2c2ccc(F)cc2)o1 (centres unmarked) [Compound 505]
231 to 232 °C	Cc1ccc(C(=O)C2=C(O)C(=O)N(c3ccc4ncsc4c3)C2c2ccccc2F)o1 (centres unmarked) [Compound 564]
221 to 222 °C	Cc1ccc(C(=O)C2=C(O)C(=O)N(c3ccc4ncsc4c3)C2c2ccc(F)cc2)o1 (centres unmarked) [Compound 565]
91 to 93 °C	Cc1ccc(C(=O)C2=C(O)C(=O)N(Cc3nc4ccccc4[nH]3)C2c2ccccc2F)o1 (centres unmarked) [Compound 566]
96 to 100 °C	Cc1ccc(C(=O)C2=C(O)C(=O)N(Cc3nc4ccccc4[nH]3)C2c2ccc(F)cc2)o1 (centres unmarked) [Compound 567]
258 to 260 °C	O=C(O)CCC(=O)C1=C(O)C(=O)N(c2nc3ccc(Cl)cc3s2)C1c1ccccc1F (centres unmarked) [Compound 568]
262 to 263 °C	O=C(O)CCC(=O)C1=C(O)C(=O)N(c2nc3ccc(Cl)cc3s2)C1c1ccc(F)cc1 (centres unmarked) [Compound 569]
216 to 218 °C	O=C(C1=C(O)C(=O)N(c2nc3c(Cl)cccc3s2)C1c1ccc(F)cc1)C1CC2C=CC1C2 (centres unmarked) [Compound 570]
262 to 263 °C	O=C(C1=C(O)C(=O)N(c2nc3ccc(Cl)cc3s2)C1c1ccccc1F)C1CCC1 (centres unmarked) [Compound 571]
271 to 273 °C	O=C(C1=C(O)C(=O)N(c2nc3ccc(Cl)cc3s2)C1c1ccc(F)cc1)C1CCC1 (centres unmarked) [Compound 572]
220 to 221 °C	O=C(C1=C(O)C(=O)N(c2nc3c(Cl)cccc3s2)C1c1ccccc1F)C1CCC1 (centres unmarked) [Compound 573]
232 to 233 °C	O=C(C1=C(O)C(=O)N(c2nc3c(Cl)cccc3s2)C1c1ccc(F)cc1)C1CCC1 (centres unmarked) [Compound 574]
219 to 220 °C	COCCOc1ccc(CCC(=O)C2=C(O)C(=O)N(c3nc4ccc(Cl)cc4s3)C2c2ccccc2F)cc1 (centres unmarked) [Compound 575]

melting point	Compound
226 to 227 °C	COCCOc1ccc(CCC(=O)C2=C(O)C(=O)N(c3nc4ccc(Cl)cc4s3)C2c2ccc(F)cc2)cc1 (centres unmarked) [Compound 576]
179 to 180 °C	COCCOc1ccc(CCC(=O)C2=C(O)C(=O)N(c3nc4c(Cl)cccc4s3)C2c2ccccc2F)cc1 (centres unmarked) [Compound 577]
182 to 183 °C	COCCOc1ccc(CCC(=O)C2=C(O)C(=O)N(c3nc4c(Cl)cccc4s3)C2c2ccc(F)cc2)cc1 (centres unmarked) [Compound 578]
205 to 206 °C	O=C(C1=C(O)C(=O)N(c2nc3ccc(Cl)cc3s2)C1c1ccccc1F)C1CC2C=CC1C2 (centres unmarked) [Compound 579]
197 to 198 °C	Cc1ccc(C(=O)C2=C(O)C(=O)N(CCc3c[nH]c4ccccc34)C2c2ccccc2F)o1 (centres unmarked) [Compound 593]
157 to 158 °C	Cc1ccc(C(=O)C2=C(O)C(=O)N(CCc3c[nH]c4ccccc34)C2c2ccc(F)cc2)o1 (centres unmarked) [Compound 594]
165 to 166 °C	Cc1ccc(C(=O)C2=C(O)C(=O)N(CCc3c[nH]c4ccccc34)C2c2ccc(Cl)cc2)o1 (centres unmarked) [Compound 595]
236 to 237 °C	Cc1ccc(C(=O)C2=C(O)C(=O)N(c3nc4ccc(Cl)cc4s3)C2c2ccc3c(c2)OCCO3)o1 (centres unmarked) [Compound 596]
236 to 237 °C	Cc1ccc(C(=O)C2=C(O)C(=O)N(c3nc4ccc(F)cc4s3)C2c2ccc3c(c2)OCCO3)o1 (centres unmarked) [Compound 597]
251 to 252 °C	Cc1ccc(C(=O)C2=C(O)C(=O)N(c3nc4c(Cl)cccc4s3)C2c2ccc3c(c2)OCCO3)o1 (centres unmarked) [Compound 598]
255 to 257 °C	Cc1ccc(C(=O)C2=C(O)C(=O)N(c3nc4ccc(Cl)cc4s3)C2c2ccc3ccccc3c2)o1 (centres unmarked) [Compound 599]
254 to 256 °C	Cc1ccc(C(=O)C2=C(O)C(=O)N(c3nc4ccc(F)cc4s3)C2c2ccc3ccccc3c2)o1 (centres unmarked) [Compound 600]
261 to 262 °C	Cc1ccc(C(=O)C2=C(O)C(=O)N(c3nc4c(Cl)cccc4s3)C2c2ccc3ccccc3c2)o1 (centres unmarked) [Compound 601]
229 to 230 °C	COc1cccc(C2C(C(=O)c3ccc(C)o3)=C(O)C(=O)N2c2nc3ccc(Cl)cc3s2)c1 (centres unmarked) [Compound 602]
201 to 202 °C	COc1cccc(C2C(C(=O)c3ccc(C)o3)=C(O)C(=O)N2c2nc3ccc(F)cc3s2)c1 (centres unmarked) [Compound 603]
255 to 256 °C	COc1cccc(C2C(C(=O)c3ccc(C)o3)=C(O)C(=O)N2c2nc3c(Cl)cccc3s2)c1 (centres unmarked) [Compound 604]
229 to 230 °C	COc1cc(C2C(C(=O)c3ccc(C)o3)=C(O)C(=O)N2c2nc3ccc(Cl)cc3s2)cc(OC)c1OC (centres unmarked) [Compound 605]
244 to 245 °C	COc1cc(C2C(C(=O)c3ccc(C)o3)=C(O)C(=O)N2c2nc3ccc(F)cc3s2)cc(OC)c1OC (centres unmarked) [Compound 606]
251 to 252 °C	COc1cc(C2C(C(=O)c3ccc(C)o3)=C(O)C(=O)N2c2nc3c(Cl)cccc3s2)cc(OC)c1OC (centres unmarked) [Compound 607]
235 to 236 °C	Cc1ccc(C(=O)C2=C(O)C(=O)N(c3nc4ccc(Cl)cc4s3)C2c2ccc(C)o2)o1 (centres unmarked) [Compound 608]
224 to 225 °C	Cc1ccc(C(=O)C2=C(O)C(=O)N(c3nc4c(Cl)cccc4s3)C2c2ccc(C)o2)o1 (centres unmarked) [Compound 610]

melting point	Compound
207 to 210 °C	CCN(CC)c1ccc(C2C(C(=O)c3ccc(C)o3)=C(O)C(=O)N2c2nc3ccc(Cl)cc3s2)cc1 (centres unmarked) [Compound 614]
209 to 212 °C	CCN(CC)c1ccc(C2C(C(=O)c3ccc(C)o3)=C(O)C(=O)N2c2nc3ccc(F)cc3s2)cc1 (centres unmarked) [Compound 615]
223 to 226 °C	CCN(CC)c1ccc(C2C(C(=O)c3ccc(C)o3)=C(O)C(=O)N2c2nc3c(Cl)cccc3s2)cc1 (centres unmarked) [Compound 616]
260 to 261 °C	Cc1ccc(C(=O)C2=C(O)C(=O)N(c3nc4ccc(Cl)cc4s3)C2c2cccc3ccccc23)o1 (centres unmarked) [Compound 617]
251 to 252 °C	Cc1ccc(C(=O)C2=C(O)C(=O)N(c3nc4ccc(F)cc4s3)C2c2cccc3ccccc23)o1 (centres unmarked) [Compound 618]
249 to 250 °C	Cc1ccc(C(=O)C2=C(O)C(=O)N(c3nc4c(Cl)cccc4s3)C2c2cccc3ccccc23)o1 (centres unmarked) [Compound 619]
259 to 260 °C	Cc1ccc(C(=O)C2=C(O)C(=O)N(c3nc4ccc(Cl)cc4s3)C2c2ccc(C#N)cc2)o1 (centres unmarked) [Compound 620]
255 to 256 °C	Cc1ccc(C(=O)C2=C(O)C(=O)N(c3nc4ccc(F)cc4s3)C2c2ccc(C#N)cc2)o1 (centres unmarked) [Compound 621]
273 to 274 °C	Cc1ccc(C(=O)C2=C(O)C(=O)N(c3nc4c(Cl)cccc4s3)C2c2ccc(C#N)cc2)o1 (centres unmarked) [Compound 622]
253 to 254 °C	Cc1ccc(C(=O)C2=C(O)C(=O)N(c3nc4ccc(Cl)cc4s3)C2c2cccc(F)c2F)o1 (centres unmarked) [Compound 623]
239 to 240 °C	Cc1ccc(C(=O)C2=C(O)C(=O)N(c3nc4ccc(F)cc4s3)C2c2cccc(F)c2F)o1 (centres unmarked) [Compound 624]
274 to 275 °C	Cc1ccc(C(=O)C2=C(O)C(=O)N(c3nc4c(Cl)cccc4s3)C2c2cccc(F)c2F)o1 (centres unmarked) [Compound 625]
254 to 256 °C	Cc1ccc(C(=O)C2=C(O)C(=O)N(c3nc4ccc(Cl)cc4s3)C2c2ccccc2C)o1 (centres unmarked) [Compound 626]
214 to 215 °C	Cc1ccc(C(=O)C2=C(O)C(=O)N(c3nc4ccc(F)cc4s3)C2c2ccccc2C)o1 (centres unmarked) [Compound 627]
244 to 245 °C	Cc1ccc(C(=O)C2=C(O)C(=O)N(c3nc4c(Cl)cccc4s3)C2c2ccccc2C)o1 (centres unmarked) [Compound 628]
268 to 272 °C	CC(=O)N1CCCC1C(=O)C1=C(O)C(=O)N(c2nc3ccc(Cl)cc3s2)C1c1ccc(F)cc1 (centres unmarked) [Compound 646, 4-(1-Acetylpyrrolidine-2-carbonyl)-1-(6-chlorobenzo[d]thiazol-2-yl)-5-(4-fluorophenyl)-3-hydroxy-1H-pyrrol-2(5H)-one]
148 to 152 °C	CC(=O)NC(CC(C)C)C(=O)C1=C(O)C(=O)N(c2nc3ccc(Cl)cc3s2)C1c1ccc(F)cc1 (centres unmarked) [Compound 647]
293 to 297 °C	CC(=O)N1CCCC1C(=O)C1=C(O)C(=O)N(c2nc3ccc(F)cc3s2)C1c1ccc(Cl)cc1 (centres unmarked) [Compound 648]
266 to 269 °C	CC(=O)NC(CC(C)C)C(=O)C1=C(O)C(=O)N(c2nc3ccc(F)cc3s2)C1c1ccc(Cl)cc1 (centres unmarked) [Compound 649]

Experiment: Cytotoxicity (CellTiter 96 Aqueous Non-Radioactive Cell Proliferation Assay)
Type: cell-based
Conditions: human, Huh7 cells
Experimental: Novel antibacterial peptidyl tRNA hydrolase inhibitors were identified using the MIC assay (inhibition ranged from 32-100%). The inhibitors were also bacteria specific, as evidenced by the low cytotoxicity observed for the human Huh7 cells (FIG. 4). Cytotoxicity was determined according to manufacturer's directions (CellTiter 96 Aqueous Non-Radioactive Cell Proliferation Assay, Promega).
Further data for representative compounds is set forth in Table 1 (MIC and cytotoxicity). Compounds were tested against S. aureus (ATCC 29213) and E. coli (BAS849—permeable) in the MIC assays. Certain compounds were also tested against other bacteria, including S. epidermis (ATCC 12228), E. faecium (ATCC 49624), and E. faecalis (ATCC 29212). Cytotoxicity was determined using Hu7 cells and Hep G2 cells. The MIC and cytotoxicity assays were performed as described above.

Compound	CC50
CCOc1cc(C2C(C(=O)c3cc4ccccc4o3)=C(O)C(=O)N2c2nnc(SCc3cccc4ccccc34)s2)ccc1O (centres unmarked) [Compound 2]	> 79 µM
